Legend:
Tubulin = Tubulin (Bos taurus, UniProt Q6B856+Q862L2+Q862F3); assay: Inhibition of bovine tubulin polymerization after 1 hr by fluorescence spectrometry; type: protein assay
HT-29 [1] = assay: Antiproliferative activity against human HT-29 cells at 10 uM after 72 hrs by MTS assay; type: functional; conditions: HT-29, 72 h
SR = assay: Growth inhibition of human SR cells after 48 hrs by sulforhodamine B assay; type: functional
[2] = Growth inhibition of human SF295 cells after 48 hrs by sulforhodamine B assay; type: functional; conditions: SF-295, 48 h
A498 = assay: Growth inhibition of human A498 cells after 48 hrs by sulforhodamine B assay; type: functional; conditions: A498, 48 h
[3] = Growth inhibition of human HCT15 cells after 48 hrs by sulforhodamine B assay; type: functional; conditions: HCT-15, 48 h
U-251 = assay: Growth inhibition of human U251 cells after 48 hrs by sulforhodamine B assay; type: functional; conditions: U-251, 48 h
[4] = Growth inhibition of human OVCAR3 cells after 48 hrs by sulforhodamine B assay; type: functional; conditions: OVCAR-3, 48 h
[5] = Growth inhibition of human Caki1 cells after 48 hrs by sulforhodamine B assay; type: functional; conditions: CAKI-1, 48 h
[6] = Growth inhibition of human COLO205 cells after 48 hrs by sulforhodamine B assay; type: functional; conditions: COLO 205, 48 h
[7] = Growth inhibition of human HL-60(TB) cells after 48 hrs by sulforhodamine B assay; type: functional; conditions: HL-60, 48 h
MDA-MB-435 = assay: Growth inhibition of human MDA-MB-435 cells after 72 hrs by MTT assay; type: functional; conditions: MDA-MB-435, 72 h
[8] = Growth inhibition of human SNB75 cells after 48 hrs by sulforhodamine B assay; type: functional; conditions: SNB-75, 48 h
[9] = Growth inhibition of human HCT116 cells after 48 hrs by sulforhodamine B assay; type: functional; conditions: HCT-116, 48 h
HT-29 [10] = assay: Growth inhibition of human HT-29 cells after 48 hrs by sulforhodamine B assay; type: functional; conditions: HT-29, 48 h
SK-MEL-5 = assay: Growth inhibition of human SK-MEL-5 cells after 48 hrs by sulforhodamine B assay; type: functional; conditions: SK-MEL-5, 48 h
K562 = assay: Growth inhibition of human K562 cells after 48 hrs by sulforhodamine B assay; type: functional; conditions: K562, 48 h
NCI-H522 = assay: Growth inhibition of human NCI-H522 cells after 48 hrs by sulforhodamine B assay; type: functional; conditions: NCI-H522, 48 h
MCF7 = assay: Growth inhibition of human MCF7 cells after 3 days by MTT assay; type: functional; conditions: MCF7, 72 h
[11] = Growth inhibition of human HOP62 cells after 48 hrs by sulforhodamine B assay; type: functional; conditions: HOP-62, 48 h
A549 = assay: Growth inhibition of human A549/ATCC cells after 48 hrs by sulforhodamine B assay; type: functional; conditions: A549, 48 h
[12] = Growth inhibition of human PC3 cells after 48 hrs by sulforhodamine B assay; type: functional; conditions: PC-3, 48 h

## Cn1c(=O)c2ccccc2n2c(-c3ccc(O)c(O)c3)nnc12
Tubulin
  IC50: > 10000 nM
HT-29 [1]
  inhibition at 10 µM: 0%

## COc1ccc(-c2nnc3[nH]c(=O)c4ccccc4n23)cc1
Tubulin
  IC50: > 10000 nM
HT-29 [1]
  inhibition at 10 µM: 0%

## COc1cc(-c2nnc3[nH]c(=O)c4ccccc4n23)cc(OC)c1OC
Tubulin
  IC50: > 10000 nM
HT-29 [1]
  inhibition at 10 µM: 2%

## COc1ccc(-c2nnc3n(C)c(=O)c4ccccc4n23)cc1OC
Tubulin
  IC50: > 10000 nM
HT-29 [1]
  inhibition at 10 µM: 1%

## COc1cc(-c2nnc3[nH]c(=O)c4ccccc4n23)ccc1O
Tubulin
  IC50: > 10000 nM
HT-29 [1]
  inhibition at 10 µM: 0%

## COc1ccc(/C=C\c2cc(OC)c(OC)c(OC)c2)cc1O [COMBRETASTATIN A4]
SR
  GI50: 3 nM
[2]
  GI50: 4 nM
A498
  GI50: 6 nM
[3]
  GI50: 4 nM
U-251
  GI50: 4 nM
[4]
  GI50: 2 nM
[5]
  GI50: 25 nM
[6]
  GI50: 221 nM
[7]
  GI50: 2 nM
MDA-MB-435
  GI50: 3 nM
[8]
  GI50: 8 nM
[9]
  GI50: 3 nM
HT-29 [10]
  GI50: 118 nM
SK-MEL-5
  GI50: 3 nM
K562
  GI50: 2 nM
NCI-H522
  GI50: 2 nM
MCF7
  GI50: 18 nM
[11]
  GI50: 2 nM
A549
  GI50: 16 nM
[12]
  GI50: 1 nM

Reference: ChEMBL document CHEMBL3792284, “Synthesis of triazoloquinazolinone based compounds as tubulin polymerization inhibitors and vascular disrupting agents” (Eur J Med Chem, 2016)
